The test has as its target hLig1-DNA complex (Homo sapiens, UniProt P18858). The experiment in a line: Electrophoretic mobility shift assay (EMSA). In kind it is binding. The note with it: 25, 50 and 100 μM; hLig1 10 pmol, DNA 1 pmol. How it is done:
EMSA was performed as described in Xi Chen et. al, Cancer Res 2008; 68(9):3169-3177 with some modifications, for the interaction study between 8k and hLig1. Of the three oligos used to construct the DNA substrate, one was a 5′-FAM labelled 27-mer oligo with a dideoxy modified 3′ end. Other two oligos of 25-mer and 52-mer were used. These oligos were annealed to obtain a non-ligatable nicked DNA substrate which the ligase enzyme can recognize and bind to, but cannot ligate or release from it. […] Lanes 3-5 (FIG. 6A) contain increasing concentrations of the inhibitor. A shift in signal is seen is lanes 3-5. This shift in the ligase-DNA complex can occur only if the inhibitor binds to the complex of hLig1+DNA and increases the size of the complex. If inhibitor binds to ligase alone, then we would expect fewer signals in lanes 3-5. But since we see an increase in intensity of signal as well as a super-shift in the signal, we can reliably say that the inhibitor binds to the DNA-ligase complex and not separately to either DNA or ligase.
On the technique in general: A gel shift assay detects complexes by their altered migration in electrophoresis.

Sequence of hLig1-DNA complex (P18858 whole entry, one chain of several): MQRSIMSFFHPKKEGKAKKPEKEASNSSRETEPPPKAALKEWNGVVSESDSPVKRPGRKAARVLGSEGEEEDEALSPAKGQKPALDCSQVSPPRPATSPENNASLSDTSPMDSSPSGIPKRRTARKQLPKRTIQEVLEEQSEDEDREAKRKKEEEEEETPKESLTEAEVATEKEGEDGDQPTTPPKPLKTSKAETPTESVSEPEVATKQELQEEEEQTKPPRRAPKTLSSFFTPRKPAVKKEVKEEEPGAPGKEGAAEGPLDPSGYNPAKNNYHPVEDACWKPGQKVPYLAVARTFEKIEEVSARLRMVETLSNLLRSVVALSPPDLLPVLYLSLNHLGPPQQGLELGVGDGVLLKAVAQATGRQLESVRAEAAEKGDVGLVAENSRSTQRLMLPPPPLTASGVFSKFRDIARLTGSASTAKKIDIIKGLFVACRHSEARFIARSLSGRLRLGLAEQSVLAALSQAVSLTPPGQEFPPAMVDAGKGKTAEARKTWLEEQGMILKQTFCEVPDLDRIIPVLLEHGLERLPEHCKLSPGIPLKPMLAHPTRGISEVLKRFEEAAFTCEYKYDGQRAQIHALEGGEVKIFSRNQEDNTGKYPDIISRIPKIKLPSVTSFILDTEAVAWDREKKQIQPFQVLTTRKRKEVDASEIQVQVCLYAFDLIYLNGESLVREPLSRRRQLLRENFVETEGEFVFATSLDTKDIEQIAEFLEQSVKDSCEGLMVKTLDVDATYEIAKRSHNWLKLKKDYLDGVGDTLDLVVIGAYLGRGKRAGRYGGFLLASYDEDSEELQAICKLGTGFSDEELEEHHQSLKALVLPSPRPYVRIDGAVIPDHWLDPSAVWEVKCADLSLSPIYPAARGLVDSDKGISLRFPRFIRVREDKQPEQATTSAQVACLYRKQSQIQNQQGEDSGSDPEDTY

As to `CCCCCCCCCCCC[N+](C)(CCCCCCCCCCCC)CC(=O)NC1CCC(=O)N(CC(=O)c2ccccc2)C1=O` (stereo not shown) [Compound 8k, {[2,6-Dioxo-1-(2-oxo-2-phenyl-ethyl)-piperidin-3-ylcarbamoyl]-methyl}-Didodecyl-methyl-ammonium iodide], the “mode of inhibition by EMSA” value is recorded as “un-competitive mode of inhibition”.

The values are drawn from patent US10266564B2, “Cationic lipid cordiarimide hybrid compounds and a process for preparation thereof” (COUNCIL OF SCIENTIFIC & INDUSTRIAL RESEARCH, priority 2014, dated 2019).
